Experimental data reported in paper PMC11258682, “Mechanoresponsive Protein Crystals for NADH Recycling in Multicycle Enzyme Reactions” (Journal of the American Chemical Society, 2024).

Target: Cry3Aa (Bacillus thuringiensis, UniProt P0A379)
Settings: solid crystals, non-specific electrostatic adsorption likely; no PEI

Cry3Aa, sequence (P0A379 58-644 limits assumed): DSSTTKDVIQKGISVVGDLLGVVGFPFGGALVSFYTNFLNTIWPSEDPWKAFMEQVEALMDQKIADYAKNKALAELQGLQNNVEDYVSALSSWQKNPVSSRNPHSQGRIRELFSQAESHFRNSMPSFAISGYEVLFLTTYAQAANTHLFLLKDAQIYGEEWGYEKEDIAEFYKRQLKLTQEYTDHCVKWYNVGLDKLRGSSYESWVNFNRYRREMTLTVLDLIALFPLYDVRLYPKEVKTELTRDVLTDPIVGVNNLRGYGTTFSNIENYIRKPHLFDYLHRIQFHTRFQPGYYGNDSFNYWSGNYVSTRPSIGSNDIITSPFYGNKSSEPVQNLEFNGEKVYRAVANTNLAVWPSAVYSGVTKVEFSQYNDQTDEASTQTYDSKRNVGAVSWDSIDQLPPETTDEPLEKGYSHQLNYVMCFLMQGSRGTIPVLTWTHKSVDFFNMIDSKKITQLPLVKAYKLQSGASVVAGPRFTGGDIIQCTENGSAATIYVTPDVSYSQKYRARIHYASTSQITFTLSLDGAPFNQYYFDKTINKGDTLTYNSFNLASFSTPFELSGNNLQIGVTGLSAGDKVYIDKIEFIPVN

NC(=O)C1=CN([C@@H]2O[C@H](COP(=O)(O)OP(=O)(O)OC[C@H]3O[C@@H](n4cnc5c(N)ncnc54)[C@H](O)[C@@H]3O)[C@@H](O)[C@H]2O)C=CC1 [NADH]
amount of NADH bound: 6 ± 2 µmol/g
